{
  "source": "paper PMC12605013",
  "about": "“SAG1.3-derived Frizzled-targeting small-molecule compounds” (The Journal of Biological Chemistry, 2025)",
  "key": {"Nluc-FZD4": {"target": "T1, Nluc-FZD4 (Homo sapiens, UniProt Q9ULV1)", "T1 construct": "expressed in transfected cells; host or cells: ΔFZD1–10 HEK293T cells", "T1 sequence (Q9ULV1 37-537)": "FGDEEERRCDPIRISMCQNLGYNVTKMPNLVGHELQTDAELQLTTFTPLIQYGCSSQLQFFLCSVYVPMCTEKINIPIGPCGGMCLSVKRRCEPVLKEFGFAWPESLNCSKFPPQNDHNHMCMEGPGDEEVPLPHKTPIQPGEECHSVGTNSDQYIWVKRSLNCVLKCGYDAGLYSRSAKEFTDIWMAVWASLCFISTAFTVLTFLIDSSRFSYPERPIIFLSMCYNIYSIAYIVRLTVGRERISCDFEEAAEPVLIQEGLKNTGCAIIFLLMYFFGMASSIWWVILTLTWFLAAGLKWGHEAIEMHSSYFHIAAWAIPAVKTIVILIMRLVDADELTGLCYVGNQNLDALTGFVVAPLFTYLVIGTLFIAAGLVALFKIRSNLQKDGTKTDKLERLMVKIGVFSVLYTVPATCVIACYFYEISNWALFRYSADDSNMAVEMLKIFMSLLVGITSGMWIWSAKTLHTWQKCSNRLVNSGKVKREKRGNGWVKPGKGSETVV", "experiment": "BRET-based BODIPY-cyclopamine competition binding at Nluc-FZD4", "conditions": "BODIPY-cyclopamine 200 nM; ΔFZD1-10 HEK293T cells; read-out: pIC50 (11) mean ± SEM, Nluc-FZD4 (converted)", "description": "(§1) After 24 h, cells were washed once with Hanks' balanced salt solution (HBSS), followed by the addition of 80 μl of HBSS. Next, 10 μl of the competitive ligand, that is, the tested SAG1.3 derivative (either in different concentrations for the concentration–response curves or at a final concentration of 10 μM for the first screens) and 10 μl of the fluorescent tracer BODIPY–cyclopamine (final concentration: 300 nM for the first screens, 200 nM for the concentration–response experiments) were added. All serial dilutions were prepared in HBSS. The cells were incubated for 90 min at 37 °C without additional CO2, after which 10 μl of luciferase substrate diluted in HBSS (furimazine; Promega, N1572, final dilution: 1:1000 for first screening) and coelenterazine h (Biosynth; final concentration: 5 μM for concentration–response experiments) were added to the cells. Following a 10 min incubation period in the dark, the measurement was started on a BMG Labtech ClarioStar or TECAN Spark multimode microplate reader, prewarmed to 37 °C. Nluc bioluminescence was detected between 460 and 490 nm (ClarioStar) or 460 and 500 nm (TECAN Spark). The emission of the fluorescent tracer was detected between 520 and 550 nm (ClarioStar) or between 520 and 560 nm (TECAN Spark). […]"}, "PANC-1 cells": {"tested_on": "PANC-1 cells", "experiment": "Cell viability (AlamarBlue) of PANC-1 cells", "type": "cell-based, human", "conditions": "one-week treatment; 10 µM", "description": "HPAF-II cells and PANC-1 cells were seeded in DMEM at a density of 1000 cells per well into a black opaque 96-well plate (Greiner BioOne). After 1 day, the medium was exchanged with complete DMEM containing either compound 11, the porcupine inhibitor C59, or DMSO (vehicle control). After 3 days of incubation (37 °C, 5% CO2), the medium was exchanged once again with DMEM containing the same concentration of ligands or DMSO (vehicle control). Three days after (equal to 7 days after seeding), the medium was removed and 90 μl of fresh DMEM (without any ligands) were added. Last, 10 μl of AlamarBlue HS reagent (Thermo Fisher Scientific; catalog no.: A50100) were added to each well, and the cells were incubated for 4 h at 37 °C inside the incubator (5% CO2). After the incubation step, fluorescence was read using a TECAN Spark multimode microplate reader (excitation: 535 ± 25 nm, emission: 595 ± 35 nm).\nFor each cell viability experiment, the fluorescence measured in ligand-treated wells was normalized to the average fluorescence from wells treated with vehicle control (DMSO)."}, "HiBiT-FZD5": {"target": "T2, HiBiT-FZD5 (Homo sapiens, UniProt Q13467)", "T2 construct": "expressed in transfected cells; host or cells: HEK293A cells", "T2 sequence (Q13467 27-585)": "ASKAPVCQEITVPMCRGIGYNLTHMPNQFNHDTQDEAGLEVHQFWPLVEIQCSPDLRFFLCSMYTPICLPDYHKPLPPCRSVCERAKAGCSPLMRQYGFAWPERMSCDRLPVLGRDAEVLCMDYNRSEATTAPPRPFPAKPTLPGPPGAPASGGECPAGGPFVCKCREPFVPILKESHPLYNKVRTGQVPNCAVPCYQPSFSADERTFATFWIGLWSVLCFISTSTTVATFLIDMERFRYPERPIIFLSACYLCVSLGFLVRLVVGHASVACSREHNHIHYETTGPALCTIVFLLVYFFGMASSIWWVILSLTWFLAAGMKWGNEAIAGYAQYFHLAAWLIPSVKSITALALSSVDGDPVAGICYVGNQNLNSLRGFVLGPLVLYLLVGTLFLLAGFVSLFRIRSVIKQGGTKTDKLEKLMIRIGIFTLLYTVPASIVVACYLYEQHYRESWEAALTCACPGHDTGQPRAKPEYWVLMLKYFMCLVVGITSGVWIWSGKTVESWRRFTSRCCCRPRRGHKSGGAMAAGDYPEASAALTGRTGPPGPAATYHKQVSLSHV", "experiment": "NanoBiT cell surface expression assay, HiBiT-FZD5", "type": "cell-based", "conditions": "10 μM, overnight exposure", "description": "Subsequently, 10 μl of either compound 11 or 26 (DD436001) was added at a final concentration of 10 μM. DMSO was added separately as a control. One day after compound or DMSO addition, cells were washed once with HBSS, and 90 μl of HBSS was added to the wells. To measure cell surface expression, a 1:20 dilution of furimazine live cell substrate and 1:20 LgBiT mix (final dilution = 1:200) were prepared in HBSS and 10 μl was added. The plate was incubated for 30 min to allow for HiBiT–LgBiT complementation, and then luminescence was measured on a TECAN Spark multimode microplate reader between 460 and 500 nm (integration time: 200 ms).\nFigure S4. BRET time-course of compound 11 at the FZD5-DEP-Clamp in agonist mode and HiBiT-FZD5/6 surface expression upon compound exposure. (A) Shown is the BRET time-course recorded upon addition of 30 µM compound 11 or vehicle (DMSO). Experiments were performed in HEK293A cells stably expressing the FZD5-DEP-Clamp sensor. […] The timepoint of ligand addition is indicated by a black arrow. (B, C) Impact of compound 11 on FZD cell surface expression. The cell surface pool of transiently-transfected HiBiT-FZD5 (B) and HiBiT-FZD6 (C) was assessed by addition of recombinant LgBiT in combination with detection of NanoBiT luminescence. […]"}, "Nluc-FZD5": {"target": "T3, Nluc-FZD5 (Homo sapiens, UniProt Q13467)", "T3 construct": "expressed in transfected cells; host or cells: ΔFZD1–10 HEK293T cells", "T3 sequence (Q13467 27-585)": "as above", "experiment": "BRET-based BODIPY-cyclopamine competition binding at Nluc-FZD5", "conditions": "BODIPY-cyclopamine 200 nM; ΔFZD1-10 HEK293T cells; read-out: pIC50 (11) mean ± SEM, Nluc-FZD5 (converted)", "description": "as §1"}, "[1]": {"target": "T4, firefly luciferase (Fluc) (Photinus pyralis, UniProt P08659)", "T4 construct": "expressed in transfected cells; host or cells: HEK293 cells", "T4 sequence (P08659 whole entry)": "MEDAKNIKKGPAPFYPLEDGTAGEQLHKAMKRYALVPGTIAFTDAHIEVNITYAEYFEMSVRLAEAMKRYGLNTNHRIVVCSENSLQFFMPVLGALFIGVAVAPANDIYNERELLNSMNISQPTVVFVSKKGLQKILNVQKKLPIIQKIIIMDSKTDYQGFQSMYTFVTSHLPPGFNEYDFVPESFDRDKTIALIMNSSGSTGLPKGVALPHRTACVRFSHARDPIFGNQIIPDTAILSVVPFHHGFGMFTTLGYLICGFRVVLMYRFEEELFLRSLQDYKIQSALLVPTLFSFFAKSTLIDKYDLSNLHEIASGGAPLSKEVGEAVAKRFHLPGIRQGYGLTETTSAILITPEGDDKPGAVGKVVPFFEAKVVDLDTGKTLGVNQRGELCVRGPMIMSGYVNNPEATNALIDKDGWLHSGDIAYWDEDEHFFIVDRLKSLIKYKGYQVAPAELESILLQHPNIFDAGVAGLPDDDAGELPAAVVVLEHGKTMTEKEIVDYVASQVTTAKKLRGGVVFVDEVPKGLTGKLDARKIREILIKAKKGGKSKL", "experiment": "Fluc counter assay (CMV-driven recombinant Fluc in HEK293 cells)", "type": "cell-based", "conditions": "counter assay for readout interference", "description": "Figure S3. […] Experiments were performed in HEK293 cells."}},
  "data": [
    {"smiles": "CC(=O)Nc1cccc(C(=O)NC2CCC(N(Cc3cccc(-c4ccncc4)c3)C(=O)c3sc4ccccc4c3Cl)CC2)c1", "note": "(centres unmarked) [compound 11, N-((1r,4r)-4-(3-Acetamidobenzamido)cyclohexyl)-3-chloro-N-(3-(pyridin-4-yl)benzyl)benzo[b]thiophene-2-carboxamide]", "values": [
      {"measurement": "IC50", "setting": "Nluc-FZD4", "result": 0.955, "unit": "µM"},
      {"measurement": "Cell viability of RNF43-wildtype PANC-1 cells", "setting": "PANC-1 cells", "result": "not significantly affected"},
      {"measurement": "Effect on surface levels of HiBiT-FZD5", "setting": "HiBiT-FZD5", "result": "had no effect"},
      {"measurement": "IC50", "setting": "Nluc-FZD5", "result": 0.759, "unit": "µM"},
      {"measurement": "Interference with Fluc bioluminescence", "setting": "[1]", "result": "interferes with Fluc bioluminescence"}
    ]}
  ]
}
